{"source": "patent US12116387B2", "about": "“Antimicrobial peptides” (priority 2021, dated 2024)", "key": {"P. aeruginosa": {"tested_on": "P. aeruginosa", "test": "Skin scarification (abscess) infection mouse model", "format": "in vivo", "settings": "single dose 16 μmol L^−1", "text": "Despite these therapeutic properties, mast-MO retained some cytotoxicity towards human cells at concentrations immediately above its antimicrobial and immunomodulatory activities hindering its use as a potential therapy in humans. FIG. 6B pertains to design of mast-MO derivatives through permutation of its FLPII motif. FIG. 6C depicts cytotoxic activity of mast-MO and its permutation variants against human embryonic kidney cells (i.e., HEK293). FIG. 6D provides a schematic of the experimental design. Briefly, the back of mice was shaved, and an abrasion was generated to damage the stratum corneum and the upper layer of the epidermis. Subsequently, an aliquot of […] containing 5×10^7 CFU/20 μL of P. aeruginosa in PBS was inoculated over each defined area. One day post-infection, peptides (16 μmol L^−1) were administered to the infected area. […] Six animals per group were euthanized and the area of scarified skin was excised two days post-infection, homogenized using a bead beater for 20 min (25 Hz), and serially diluted for CFU quantification (statistical significance was determined using two-way ANOVA followed by Dunnett's test, ***p<0.001). […]\nSkin abscess infection mouse model. […] Animals were euthanized and the area of scarified skin was excised two- and four-days post-infection, homogenized using a bead beater for 20 minutes (25 Hz), and serially diluted for CFU quantification. […]"}, "[1]": {"tested_on": "murine macrophages monocytes (RAW 264.7)", "test": "Cytotoxicity against RAW 264.7 cells (MTT)", "format": "cell-based"}, "[2]": {"tested_on": "human red blood cells (hRBCs)", "test": "Cytotoxicity / hemolysis against human red blood cells", "format": "cell-based", "procedure": "Once the mechanisms by which the peptide targeted bacterial cells was elucidawted, the effect of the pentapeptide motif insertion on cytotoxicity against mammalian cells was evaluated."}, "[3]": {"tested_on": "murine fibroblasts (L929)", "test": "Cytotoxicity against L929 fibroblasts (MTT)", "format": "cell-based", "protocol": "Mammalian cells toxicity assays. L929 mice fibroblasts (Rio de Janeiro Cell Bank) and SPCs were seeded in 96-well microtiter plates in a concentration of 1.0×10^5 cells per well, in DMEM medium, supplemented with different concentrations of tested peptides (1-600 μM). After 48 h incubation, a thiazolyl blue tetrazolium bromide (MTT) protocol was performed. Briefly, 60% of the medium was removed, and 10 μL of MTT (5 mg mL^−1) (Sigma, USA) solution was added to each well and the plate was incubated for 4 h, in 5% CO2, at 37° C. The blue formazan product generated was dissolved by the addition of 100 μL of 100% DMSO (Mallinckrodt, Germany) per well. Plates were then gently swirled for 5 min, at room temperature, to dissolve the precipitate. The absorbance was monitored at 575 nm using a microplate spectrophotometer (Bio-Tek, USA). Cytotoxicity was determined as a percentage of the maximum value after subtracting the background. The results were expressed as the percentage of each sample compared to the negative control (PBS buffer, pH 7.4) and cell culture was incubated in a lysis buffer (10 mM Tris, pH 7.4, 1 mM ethylenediamine tetraacetic acid (EDTA), and 0.1% Triton X-100)."}, "[4]": {"tested_on": "mouse red blood cells (mRBCs)", "test": "Hemolysis of mouse red blood cells", "format": "cell-based", "settings": "0.5 to 200 μmol L^−1", "protocol": "Hemolysis assays. Hemolytic activity of peptides was determined by using fresh mouse red blood cells (mRBCs), by measuring the peptide-induced changes of the optical density (OD) at 540 nm (Victor X, Perkin-Elmer, Germany), 100% lysis was determined by analysing the supernatant of erythrocytes that had been incubated with Triton X-100 (1%)."}, "mice": {"tested_on": "mice", "protocol": "Therefore, the anti-infective activity of mast-MO was then tested in pre-clinical mouse models. First, the toxicity of a single dose of either mast-L or mast-MO administered peritoneally to mice was assessed in order to determine the range of concentrations to be used in subsequent animal experiments. The hemolytic activity of mast-MO (up to 200 μmoL^−1) against murine red blood cells (Table 6) was also tested prior to conducting animal experiments.\nSystemic bacterial infection mouse model. Acute toxicity assay was performed based on the work of Navon-Venezia and co-workers (46). The experiment was performed by intraperitoneal (i.p.) injection of the tested peptides to groups of 10 C57BL/6 mice. Each mouse was injected with a 0.5 mL solution of freshly prepared of peptides in PBS. The doses of peptide administered per mouse were 0, 10, 30, 50, 70 and 90 mg Kg^−1 of body weight. Animals were directly inspected for adverse effects for 6 h, and mortality was monitored for 7 days thereafter. Differences between groups were analysed using the Fisher exact test (differences were considered to be statistically significant when the P value was <0.05). Briefly, E. coli ATCC8739 and E. coli 1812446 or S. aureus ATCC 29213 and S. aureus (MRSA) ATCC33591 were plated on tryptic soy agar plus 5% sheep blood (blood agar, Himedia, India) from a frozen stock. Following 24 h of incubation of the agar plate, three isolated colonies were transferred to 1 mL of BHI. The broth culture was incubated overnight (12-16 h) at 37° C. with shaking. […] Mice were challenged with either strain of E. coli ATCC8739 and E. coli 1812446 or S. aureus ATC29213 and S. aureus (MRSA) ATCC33591 in a final volume of 200 μL of PBS by intraperitoneal injection (i.p.). The day of challenge was designated as day 1 of the experiment. Three hours after bacterial injection, mice (n=5) were treated, intraperitoneally, with different concentrations of peptides (1, 5 or 10 mg Kg^−1), LL-37, gentamicin and 10 mg Kg^−1 of imipenem or PBS for 8 days. For bacterial load evaluation, 5 mice per group were used. Animals were humanely killed 24 h after bacterial administration. To detect bacterial colonization, the peritoneal lavage samples were collected under sterile conditions. The peritoneal lavage was obtained by washing the cavity with 5 mL of sterile PBS. Samples were diluted serially, and 100 μL of each dilution was spread in duplicate on appropriate agar plates for the count of developed colonies. Cytokine levels (i.e., IFN-γ, IL-6, IL−10, IL−12p70 and TNF-α) in the peritoneal lavage of the mice both in the absence and presence of peptide treatment were quantified by ELISA (Peprotech, USA) according to the manufacturer's instructions."}, "[5]": {"tested_on": "human embryonic kidney (HEK293) cells", "test": "Cytotoxicity against HEK293 cells", "format": "cell-based", "text": "The FLPII motif was chosen for the permutations to preserve the natural antimicrobial activity of mast-L and also conserve the hydrophobic content inserted in the N-terminal extremity for the initial design of mast-MO. Next, we assessed the antimicrobial (FIG. 10) and cytotoxic activities of the mast-MO analog library against HEK293 cells (FIG. 6C). These specific cell line was chosen as it derives from human embryonic kidney cells and potential antimicrobial (i.e., AMPs, antibiotics) toxicity affects the kidneys, which are responsible for clearing such molecules (34). Also measured was whether the peptides aggregated at the highest concentration tested (128 μmoL^−1) (Table 7) since the motif inserted is composed of residues with aliphatic or aromatic side chain groups that may be prone to aggregation when in proximity within the primary peptide sequence, thus altering biological activity. Minor changes to the first five residues inserted in the mast-MO primary sequence led to a pronounced decrease in cytotoxic activity (2.5 to 5-fold) compared to mast-MO (FIG. 6C)."}, "[6]": {"tested_on": "E. coli and S. aureus strains", "test": "Systemic infection experiments, summary over all strains", "settings": "10 mg Kg^−1", "procedure": "To determine the anti-infective activity of mast-MO in a pre-clinical mouse model, the ability of the peptide to kill pathogenic and drug-resistant E. coli and S. aureus strains was tested in a systemic sepsis infection mouse model (FIG. 5). The minimal bacterial load resulting in a lethal dose (LD100) 24 h post-intraperitoneal injection was first determined. […] Mice were infected with the LD100 of bacteria and treated 3 h post-infection with either mast-L (1 and 5 mg Kg^−1) or mast-MO (1, 5 and 10 mg Kg^−1), which were also administered intraperitoneally.\nSystemic bacterial infection mouse model. […] The experiment was performed by intraperitoneal (i.p.) injection of the tested peptides to groups of 10 C57BL/6 mice. Each mouse was injected with a 0.5 mL solution of freshly prepared of peptides in PBS. The doses of peptide administered per mouse were 0, 10, 30, 50, 70 and 90 mg Kg^−1 of body weight. Animals were directly inspected for adverse effects for 6 h, and mortality was monitored for 7 days thereafter. Differences between groups were analysed using the Fisher exact test (differences were considered to be statistically significant when the P value was <0.05). Briefly, E. coli ATCC8739 and E. coli 1812446 or S. aureus ATCC 29213 and S. aureus (MRSA) ATCC33591 were plated on tryptic soy agar plus 5% sheep blood (blood agar, Himedia, India) from a frozen stock. Following 24 h of incubation of the agar plate, three isolated colonies were transferred to 1 mL of BHI. The broth culture was incubated overnight (12-16 h) at 37° C. with shaking. […] Mice were challenged with either strain of E. coli ATCC8739 and E. coli 1812446 or S. aureus ATC29213 and S. aureus (MRSA) ATCC33591 in a final volume of 200 μL of PBS by intraperitoneal injection (i.p.). The day of challenge was designated as day 1 of the experiment. Three hours after bacterial injection, mice (n=5) were treated, intraperitoneally, with different concentrations of peptides (1, 5 or 10 mg Kg^−1), LL-37, gentamicin and 10 mg Kg^−1 of imipenem or PBS for 8 days. For bacterial load evaluation, 5 mice per group were used. […]"}, "[7]": {"settings": "RAW 264.7, 24 h, 0.5 to 200 μmol L^−1, MTT (Table 6)"}, "[8]": {"settings": "Dose 90 mg Kg^−1, five mice per group"}}, "note": "Like-named read-outs stand apart in the source and are kept apart here. Ends that are not written are not given here."}
{"molecule": "CC[C@H](C)[C@H](N)C(=O)N[C@@H](Cc1ccccc1)C(=O)N[C@@H](CC(C)C)C(=O)N1CCC[C@H]1C(=O)N[C@H](C(=O)N[C@H](C(=O)N[C@@H](CC(N)=O)C(=O)N[C@@H](CC(C)C)C(=O)N[C@@H](CCCCN)C(=O)N[C@@H](C)C(=O)N[C@@H](CC(C)C)C(=O)N[C@@H](C)C(=O)N[C@@H](C)C(=O)N[C@@H](CC(C)C)C(=O)N[C@@H](C)C(=O)N[C@@H](CCCCN)C(=O)N[C@@H](CCCCN)C(=O)N[C@H](C(=O)N[C@@H](CC(C)C)C(N)=O)[C@@H](C)CC)[C@@H](C)CC)[C@@H](C)CC", "note": "[Analog 15, IFLPIINLKALAALAKKIL]", "values": [{"measurement": "Side effects or adverse toxicity", "setting": "P. aeruginosa", "value": "did not cause any side effects or adverse toxicity"}]}
{"molecule": "gentamicin", "values": [{"measurement": "Cytotoxic activity, Peptide Concentration", "setting": "[1]; RAW 264.7 (Table 2)", "value": ">400", "unit": "µmol/L"}, {"measurement": "Cytotoxic activity, Peptide Concentration", "setting": "[2]; hRBCs", "value": ">400", "unit": "µmol/L"}, {"measurement": "Cytotoxic activity, Peptide Concentration", "setting": "[3]; L929", "value": ">400", "unit": "µmol/L"}]}
{"molecule": "FLPII [FLPII motif, FLPII]", "values": [{"measurement": "Cytotoxic activity, Peptide Concentration", "setting": "[1]; [7]", "value": ">200", "unit": "µmol/L"}, {"measurement": "Hemolytic activity, Peptide Concentration", "setting": "[4]", "value": ">200", "unit": "µmol/L"}]}
{"molecule": "LL-37: human cathelicidin LL-37, used for comparison", "values": [{"measurement": "Cytotoxic activity, Peptide Concentration", "setting": "[1]; RAW 264.7 (Table 2)", "value": 100, "unit": "µmol/L"}, {"measurement": "Cytotoxic activity, Peptide Concentration", "setting": "[1]; [7]", "value": 100, "unit": "µmol/L"}, {"measurement": "Cytotoxic activity, Peptide Concentration", "setting": "[2]; hRBCs", "value": 87, "unit": "µmol/L"}, {"measurement": "Cytotoxic activity, Peptide Concentration", "setting": "[3]; L929", "value": 95, "unit": "µmol/L"}, {"measurement": "Hemolytic activity, Peptide Concentration", "setting": "[4]", "value": 100, "unit": "µmol/L"}]}
{"molecule": "C[C@@H](O)[C@H]1C(=O)N2C(C(=O)O)=C(SCCN=CN)C[C@H]12", "note": "[Imipenem, imipenem]", "values": [{"measurement": "Cytotoxic activity, Peptide Concentration", "setting": "[1]; mouse", "value": ">400", "unit": "µmol/L"}, {"measurement": "Cytotoxic activity, Peptide Concentration", "setting": "[2]; human", "value": ">400", "unit": "µmol/L"}, {"measurement": "Cytotoxic activity, Peptide Concentration", "setting": "[3]; mouse", "value": ">400", "unit": "µmol/L"}, {"measurement": "Gross toxicity, number of mice (TL)", "setting": "mice; Dose 50 mg Kg^−1, five mice per group", "value": "2 (TL-1)"}, {"measurement": "Gross toxicity, number of mice (TL)", "setting": "mice; [8]", "value": "3 (TL-2)"}]}
{"molecule": "CC[C@H](C)[C@H](NC(=O)[C@H](CCCCN)NC(=O)[C@H](CCCCN)NC(=O)[C@H](C)NC(=O)[C@H](CC(C)C)NC(=O)[C@H](C)NC(=O)[C@H](C)NC(=O)[C@H](CC(C)C)NC(=O)[C@H](C)NC(=O)[C@H](CCCCN)NC(=O)[C@H](CC(C)C)NC(=O)[C@H](CC(N)=O)NC(=O)[C@@H](NC(=O)[C@H](CC(C)C)NC(=O)[C@@H](NC(=O)[C@@H](NC(=O)[C@@H]1CCCN1C(=O)[C@@H](N)Cc1ccccc1)[C@@H](C)CC)[C@@H](C)CC)[C@@H](C)CC)C(=O)N[C@@H](CC(C)C)C(N)=O", "note": "[Analog 49, FPIILINLKALAALAKKIL]", "values": [{"measurement": "Side effects or adverse toxicity", "setting": "P. aeruginosa", "value": "did not cause any side effects or adverse toxicity"}]}
{"molecule": "CC[C@H](C)[C@H](NC(=O)[C@H](CCCCN)NC(=O)[C@H](CCCCN)NC(=O)[C@H](C)NC(=O)[C@H](CC(C)C)NC(=O)[C@H](C)NC(=O)[C@H](C)NC(=O)[C@H](CC(C)C)NC(=O)[C@H](C)NC(=O)[C@H](CCCCN)NC(=O)[C@H](CC(C)C)NC(=O)[C@H](CC(N)=O)NC(=O)[C@@H](NC(=O)[C@@H](NC(=O)[C@@H](NC(=O)[C@@H]1CCCN1C(=O)[C@H](CC(C)C)NC(=O)[C@@H](N)Cc1ccccc1)[C@@H](C)CC)[C@@H](C)CC)[C@@H](C)CC)C(=O)N[C@@H](CC(C)C)C(N)=O", "note": "[Mast-MO, FLPIIINLKALAALAKKIL]", "values": [{"measurement": "Cytotoxicity towards murine macrophages (RAW 264.7 cells), in words", "setting": "[1]", "value": "not cytotoxic"}, {"measurement": "Cytotoxic activity, Peptide Concentration", "setting": "[1]; RAW 264.7 (Table 2)", "value": ">400", "unit": "µmol/L"}, {"measurement": "Hemolytic activity in human red blood cell assays", "setting": "[2]; concentration range tested 1-400 μmoL^−1", "value": "did not present hemolytic activity"}, {"measurement": "Cytotoxic activity, Peptide Concentration", "setting": "[2]; hRBCs", "value": ">400", "unit": "µmol/L"}, {"measurement": "Cytotoxicity towards murine fibroblasts (L929 cells), in words", "setting": "[3]", "value": "not cytotoxic"}, {"measurement": "Cytotoxic activity, Peptide Concentration", "setting": "[3]; L929", "value": ">400", "unit": "µmol/L"}, {"measurement": "Concentration toxic against HEK293", "setting": "[5]", "value": 25, "unit": "µmol⁻¹"}, {"measurement": "Cytotoxic activity, Peptide Concentration", "setting": "[5]; HEK293", "value": 25, "unit": "µmol/L"}, {"measurement": "Toxicity when injected systemically in the infection model", "setting": "[6]", "value": "did not present toxicity"}, {"measurement": "Gross toxicity, number of mice (TL)", "setting": "mice; [8]", "value": "2 (TL-1)"}, {"measurement": "Toxicity in preliminary mouse experiments, in words", "setting": "mice; single dose, peritoneally", "value": "lacked toxicity"}]}
